In US20110015371A1 (Vertex Pharmaceuticals Incorporated, priority 1994, published 2011):

Tests used:
[1] = biological target: T1, ICE (Homo sapiens, UniProt P29466); experiment: Enzyme assay with UV-visible substrate (Succinyl-Tyr-Val-Ala-Asp-pNitroanilide); assay type: biochemical
T1 sequence (P29466 120-297 limits assumed): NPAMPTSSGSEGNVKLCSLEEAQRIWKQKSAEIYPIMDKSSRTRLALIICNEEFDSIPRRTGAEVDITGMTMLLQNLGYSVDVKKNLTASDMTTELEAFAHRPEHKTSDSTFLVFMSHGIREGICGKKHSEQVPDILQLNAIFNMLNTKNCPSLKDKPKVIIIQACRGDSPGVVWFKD
T1 sequence (P29466 317-404 limits assumed): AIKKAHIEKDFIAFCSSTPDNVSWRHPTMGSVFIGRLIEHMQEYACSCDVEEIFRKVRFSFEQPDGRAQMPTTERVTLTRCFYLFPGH
Procedure: 1. Enzyme Assay with UV-Visible Substrate
This assay is run using an Succinyl-Tyr-Val-Ala-Asp-pNitroanilide substrate. Synthesis of analogous substrates is described by L. A. Reiter (Int. J. Peptide Protein Res. 43, 87-96 (1994)). The assay mixture contains:
The visible ICE assay is run in a 96-well microtiter plate. Buffer, ICE and DMSO (if inhibitor is present) are added to the wells in the order listed. The components are left to incubate at room temperature for 15 minutes starting at the time that all components are present in all wells. The microtiter plate reader is set to incubate at 37° C. After the 15 minute incubation, substrate is added directly to the wells and the reaction is monitored by following the release of the chromophore (pNA) at 405-603 nm at 37° C. for 20 minutes. A linear fit of the data is performed and the rate is calculated in mOD/min. DMSO is only present during experiments involving inhibitors, buffer is used to make up the volume to 100 μl in the other experiments.
For determination of enzyme inhibition constants (Ki) or the mode of inhibition (competitive, uncompetitive or noncompetitive), the rate data determined in the enzyme assays at varying inhibitor concentrations are computer-fit to standard enzyme kinetic equations (see I. H. Segel, Enzyme Kinetics, Wiley-Interscience, 1975).

[2] = tested on: Human Peripheral Blood Mononuclear Cells (PBMC) or Enriched Adherent Mononuclear Cells; experiment: Cell assay: IL-1β assay with human PBMC or enriched adherent mononuclear cells; assay type: cell-based; settings: LPS-stimulated cells, mature IL-1β in supernatant by ELISA
Excerpt: IL-1β Assay with a Mixed Population of Human Peripheral Blood Mononuclear Cells (PBMC) or Enriched Adherent Mononuclear Cells
Processing of pre-IL-1S by ICE can be measured in cell culture using a variety of cell sources. Human PBMC obtained from healthy donors provides a mixed population of lymphocyte subtypes and mononuclear cells that produce a spectrum of interleukins and cytokines in response to many classes of physiological stimulators. Adherent mononuclear cells from PBMC provides an enriched source of normal monocytes for selective studies of cytokine production by activated cells.
An initial dilution series of test compound in DMSO or ethanol is prepared, with a subsequent dilution into RPMI-10% FBS media (containing 2 mM L-glutamine, 10 mM HEPES, 50 U and 50 ug/ml pen/strep) respectively to yield drugs at 4× the final test concentration containing 0.4% DMSO or 0.4% ethanol. The final concentration of DMSO is 0.1% for all drug dilutions. A concentration titration which brackets the apparent Ki for a test compound determined in an ICE inhibition assay is generally used for the primary compound screen.
We generally test 5-6 compound dilutions and have performed the cellular component of the assay in duplicate, with duplicate ELISA determinations on each cell culture supernatant.
Buffy coat cells isolated from one pint human blood (yielding 40-45 ml final volume plasma plus cells) are diluted with media to 80 ml and LeukoPREP separation tubes (Becton Dickinson) are each overlaid with 10 ml of cell suspension. After 15 min centrifugation at 1500-1800×g, the plasma/media layer is aspirated and then the mononuclear cell layer is collected with a Pasteur pipette and transferred to a 15 ml conical centrifuge tube (Corning). Media is added to bring the volume to 15 ml, gently mix the cells by inversion and centrifuge at 300×g for 15 min. Resuspend the PBMC pellet in a small volume of media, count cells and adjust to 6×10^6 cells/ml.
For the cellular assay, add 1.0 ml of the cell suspension to each well of a 24-well flat bottom tissue culture plate (Corning), 0.5 ml test compound dilution and 0.5 ml LPS solution (Sigma #L-3012; 20 ng/ml solution prepared in complete RPMI media; final LPS concentration 5 ng/ml). The 0.5 ml additions of test compound and LPS are usually sufficient to mix the contents of the wells. Three control mixtures are run per experiment, with either LPS alone, solvent vehicle control, and/or additional media to adjust the final culture volume to 2.0 ml. The cell cultures are incubated for 16-18 hr at 37° C. in the presence of 5% CO2.
At the end of the incubation period, cells are harvested and transferred to 15 ml conical centrifuge tubes. After centrifugation for 10 min at 200×g, supernatants are harvested and transferred to 1.5 ml Eppendorf tubes. It may be noted that the cell pellet may be utilized for a biochemical evaluation of pre-IL-1S and/or mature IL-1β content in cytosol extracts by western blotting or ELISA with pre-IL-1β specific antisera.
PBMC are isolated and prepared as described above. Media (1.0 ml) is first added to wells followed by 0.5 ml of the PBMC suspension. After a one hour incubation, plates are gently shaken and nonadherent cells aspirated from each well. Wells are then gently washed three times with 1.0 ml of media and final resuspended in 1.0 ml media. The enrichment for adherent cells generally yields 2.5−3.0×10^5 cells per well. The addition of test compounds, LPS, cell incubation conditions and processing of supernatants proceeds as described above.
We have used Quantikine kits (R&D Systems) for measurement of mature IL-1β. Assays are performed according to the manufacturer's directions. Mature IL-1β levels of about 1-3 ng/ml in both PBMC and adherent mononuclear cell positive controls are observed. ELISA assays are performed on 1:5, 1:10 and 1:20 dilutions of supernatants from LPS-positive controls to select the optimal dilution for supernatants in the test panel.

[3] = Homo sapiens, PBMC, Example 6 table

Row | Compound | Ki ([1]; Example 4 table) [nM] | IC50 ([2]; Homo sapiens, PBMC, Example 4 table) [nM] | Ki ([1]; Example 6 table) [nM] | IC50 [2, 3] [nM] | IC50 ([2]; Example 6 table) [nM]
1 | COc1cccc2nc(C(=O)[C@H](CC(=O)O)NC(=O)[C@H](C)NC(=O)[C@@H](NC(=O)[C@H](Cc3ccc(O)cc3)NC(C)=O)C(C)C)oc12 [Compound 69a, (3S)N-(N-Acetyl-(S)-tyrosinyl-(S)-valinyl-(S)-alaninyl)-3-amino-4-(2-(7-methoxybenzoxazolyl))-4-oxobutanoate] | 11 | 735 |  |  | 
2 | COc1cccc2nc(C(=O)[C@H](CC(=O)O)NC(=O)[C@@H]3C[C@@H](Oc4ccccc4)CN3C(=O)[C@@H](NC(C)=O)C(C)C)oc12 [Compound 86, N-Acetyl-(S)-valinyl-(4-(S)-phenoxy)prolinyl-3(S)-amino-4-(7-methoxybenzoxazol-2-yl)-4-oxo-butanoic acid] |  |  | 175 | 4000 | 
3 | COc1cccc2nc(C(=O)[C@H](CC(=O)O)NC(=O)[C@@H]3C[C@@H](Oc4ccccc4)CN3C(C)=O)oc12 [Compound 87, N-Acetyl(4-(R)-phenoxy)prolinyl-3(S)-amino-4-(7-methoxybenzoxazol-2-yl)-4-oxo-butanoic acid] |  |  | 7200 | 35000 | 
4 | O=C(O)C[C@H](NC(=O)Cn1c(Cc2ccccc2)ccc(NC(=O)CCc2ccccc2)c1=O)C(=O)COCc1ccccc1Cl [Compound 90, N-2-(6-Benzyl-1,2-dihydro-2-oxo-3-(3-phenylpropionyl)amino-1-pyridyl)acetyl-3-amino-5-(2-chlorobenzyloxy)-4-oxo-pentanoic acid] |  |  | 420 | 6200 | 
5 | O=C(O)C[C@H](NC(=O)Cn1c(Cc2ccccc2)ccc(NC(=O)CCc2ccccc2)c1=O)C(=O)c1ncc(-c2c(Cl)cccc2Cl)s1 [Compound 91] |  |  | 260 | > 25000 | 
6 | O=C[C@H](CC(=O)O)NC(=O)[C@@H]1CCc2ncc(NC(=O)CCc3ccccc3)c(=O)n21 [Compound 98, 4-Oxo-(3S)-{[4-oxo-3-(3-phenyl-propionylamino)-4,6,7,8-tetrahydro-pyrrolo[1,2-a]pyrimidine-(6S)-carbonyl]-amino}-butyric acid] |  |  | 535 | 4000 | 
7 | COc1cccc2nc(C(=O)[C@H](CC(=O)O)NC(=O)[C@@H]3CCc4ncc(NC(=O)CCc5ccccc5)c(=O)n43)oc12 [Compound 102b, 4-(7-methyoxy-benzoxazol-2-yl)-4-oxo-(3S)-{[4-oxo-3-(3-phenyl-propionylamino)-4,6,7,8-tetrahydro-pyrrolo[1,2-a]pyrimidine-(6S)-carbonyl]-amino}-butric acid] |  |  | 290 | 1750 | 
8 | O=C[C@H](CC(=O)O)NC(=O)CN1C(=O)[C@@H](NC(=O)CCc2ccccc2)CNc2ccccc21 [Compound 106a] |  |  | 2300 | 30000 | 
9 | O=C[C@H](CC(=O)O)NC(=O)CN1C(=O)[C@@H](NC(=O)CCc2ccccc2)CN(Cc2ccccc2)c2ccccc21 [Compound 106c, 3(S)-{2-[5-Benzyl-2-oxo-3-(3(S)-phenylpropionylamino)-2,3,4,5-tetrahydrobenzo[b][1, 4]diazepin-1-yl]-acetylamino}-4-oxobutyric acid] |  |  | 3800 | > 30000 | 
10 | COc1cccc2nc(C(=O)[C@H](CC(=O)O)NC(=O)CN3C(=O)[C@@H](NC(=O)CCc4ccccc4)CN(C(=O)CCc4ccccc4)c4ccccc43)oc12 [Compound 108b, 4-(7-Methoxybenzoxazol-2-yl)-4-oxo-3(S)-{2-[2-oxo-5-(3-phenylpropionyl)-3(S)-(3-phenylpropionylamino)-2,3,4,5-tetrahydrobenzo[b][1,4]diazepin-1-yl]-acetylamino}butyric acid] |  |  | 400 | 25000 | 
11 | O=C(O)C[C@H](NC(=O)Cn1c(Cc2ccccc2)ccc(NC(=O)CCc2ccccc2)c1=O)C(=O)CSCc1ccccc1Cl [Compound 125a] |  |  | 390 |  | > 30000
12 | COc1cccc2nc(C(=O)[C@H](CC(=O)O)NC(=O)[C@H](C)n3cccc(NC(=O)CCc4ccccc4)c3=O)oc12 [Compound 126] |  |  | 450 | 1500 | 
13 | COc1cccc2nc(C(=O)[C@H](CC(=O)O)NC(=O)Cn3c(Cc4ccccc4)ccc(NC(=O)CCc4ccccc4)c3=O)oc12 [Compound 127] |  |  | 390 | 8000 | 
14 | O=C(O)C[C@H](NC(=O)Cn1c(Cc2ccccc2)ccc(NC(=O)CCc2ccccc2)c1=O)C(=O)c1ncc(-c2c(Cl)cccc2Cl)o1 [Compound 128] |  |  | 40 | 7500 | 
15 | C[C@@H](C(=O)N[C@@H](CC(=O)O)C(=O)c1ncc(-c2c(Cl)cccc2Cl)o1)n1cccc(NC(=O)CCc2ccccc2)c1=O [Compound 129] |  |  | 590 | 25000 | 
16 | O=C[C@H](CC(=O)O)NC(=O)[C@@H]1CCCN2C(=O)C[C@H](NC(=O)CCc3ccccc3)C(=O)N12 [Compound 132a] |  |  | 5000 | > 30000 | 
17 | O=C[C@H](CC(=O)O)NC(=O)[C@@H]1CCCN2CC[C@H](NC(=O)CCc3ccccc3)C(=O)N12 [Compound 133] |  |  | 50000 | > 30000 | 
18 | COc1cccc2nc(C(=O)[C@H](CC(=O)O)NC(=O)[C@@H]3CCCN4C(=O)CC[C@H](NC(=O)CCc5ccccc5)C(=O)N34)oc12 [Compound 135a] |  |  | 90 | 900 | 
19 | COc1cccc2oc(C(=O)[C@H](CC(=O)O)NC(=O)[C@@H]3CCCN4C(=O)CC[C@H](NC(=O)CCc5ccccc5)C(=O)N34)nc12 [Compound 135b] |  |  | 320 | 950 | 
20 | O=C(O)C[C@H](NC(=O)[C@@H]1CCCN2C(=O)CC[C@H](NC(=O)CCc3ccccc3)C(=O)N12)C(=O)c1ncc(-c2c(Cl)cccc2Cl)o1 [Compound 137] |  |  | 40 | 250 | 
21 | CS(=O)(=O)N[C@H]1CCC(=O)N2CCC[C@@H](C(=O)N[C@H](C=O)CC(=O)O)N2C1=O [Compound 139] |  |  | 350 | 2000 | 
22 | O=C[C@H](CC(=O)O)NC(=O)[C@@H]1Cc2ccccc2[C@H]2CCC[C@H](NC(=O)CCc3ccccc3)C(=O)N21 [Compound 140] |  |  | 870 | > 30000 | 
23 | CC(C)[C@H](NC(=O)OCc1ccccc1)C(=O)N[C@@H](C)C(=O)N[C@@H](CC(=O)O)C(=O)c1ncc(-c2ccccc2C(F)(F)F)o1 [Compound 144] |  |  | 320 | > 20000 | 
